Reference: article PMC11851430, “Workflow for E3 Ligase Ligand Validation for PROTAC Development” (ACS Chemical Biology, 2025)

Columns and labels:
[1] = system: kinase protein levels in MCF-7 cells; experiment: TMT-labeled quantitative proteomics; assay type: cell-based, human; conditions: for kinase degradation: MCF-7 cells, 6 h
Protocol: (§1) 50 µl of SDS Lysis Buffer (2% SDS, 50 mM TRIS pH 8.5, 10 mM TCEP, 40 mM CAA) was added to each sample. Cells were transferred into low binding reaction tubes (Eppendorf:
(§2) Methanol/Chloroform Precipitation. 200 µl of methanol and 50 µl of chloroform were added to each sample reaction tube and mixed via vortex. 150 µl of milliQ-H2O were added and samples were vortexed further. Samples were centrifuged for 5 minutes at 15000 g and the aqueous layer above the interphase was removed. 150 µl of methanol was added, samples were vortexed and centrifuged for 10 minutes at 15000 g to precipitate the pellet. The aforementioned wash procedure was repeated twice before transferring the pellet to a new low bind reaction tube in which it was allowed to dry for 5 minutes.
(§3) Dissolving the Protein Pellet and Protein Quantification. 50 µl of digestion buffer (8 M Urea, 50 mM TRIS pH 8) was added to each sample before vortexing and shaking at 750 rpm at room temperature for 10 minutes to solubilize the pellet. Protein quantification via PierceTM […]
(§4) Protein Digestion. Samples were diluted 1:2 with 50 mM TRIS pH 8.5 to reach a final concentration of 4 M Urea. Lys-C (Promega: VA1170) was added at a 1:100 enzyme/substrate ratio. Samples were agitated at 550 rpm and 37 °C for 3 h. Samples were further diluted with 50 mM TRIS pH 8.5 to a final concentration of 1 M Urea and Trypsin (Promega: V5280) was added at a 1:100 enzyme/substrate ratio. Samples were agitated overnight at 550 rpm and 37 °C. The digestion was stopped the following day via addition of TFA to a final concentration […]
(§5) Solid Phase Extraction via C18 Cartridges. Sep-Pak C18 Cartridges (Waters: WAT054955) were used for solid phase extraction of digested peptides. For preconditioning of C18 cartridges, 1 mL of methanol was added to each column followed by 1 mL of solution B (0.1% formic acid, 80% acetonitrile) and 1 mL of solution A (0.1% formic acid, ddH2O) twice. Samples […]
(§6) were loaded to their respective columns and once samples had passed, columns were washed twice with solution A to remove unwanted components from the loading step. Elution of samples was carried out via introduction of 40% and 60% acetonitrile steps. Samples were dried and snap frozen in liquid nitrogen.
(§7) TMT-Labeling. Desalted peptides were dried and resuspended in TMT-labeling buffer (200 mM EPPS pH 8.2, 20% acetonitrile). 10 μg of peptides per condition were subjected to TMT labeling with 1:2.5 peptide TMT ratio (w/w) for 1 h at room temperature. The labeling reaction was quenched by addition of hydroxylamine to a final concentration of 0.5% and incubation at room temperature for 15 minutes. Successful TMT labeling was verified by mixing equimolar ratios of peptides and subjecting the mix to single shot LC-MS/MS analysis. For high pH reversed phase fractionation on a Dionex analytical HPLC, 50 µg of pooled and purified TMT labelled samples were resuspended in 10 mM ammonium-bicarbonate (ABC), 5% acetonitrile, and separated on a 250 mm long C18 column (Aeris Peptide XB-C18, 4.6 mm ID, 2.6 µm particle size; Phenomenex) using a multistep gradient from 100% solvent A (5% acetonitrile, 10 mM ABC in water) to 60% solvent B (90% acetonitrile, 10 mM ABC in water) over 70 minutes. Eluting peptides were collected every 45 seconds into a total of 96 fractions, which were cross-concatenated into 24 fractions and dried in a vacuum concentrator and resuspended in 3% acetonitrile with 0.1% TFA for LC-MS analysis.
(§8) Mass spectrometry data acquisition. Tryptic peptides were analyzed on an Orbitrap Lumos coupled to an easy nLC 1200 (ThermoFisher Scientific) using a 35 cm long, 75 µm ID fused-silica column packed in house with 1.9 µm C18 particles (Reprosil pur, Dr. Maisch), and kept at 50 °C using an integrated column oven (Sonation). HPLC solvents consisted of 0.1% formic acid in water (buffer A) and 0.1% formic acid and 80% acetonitrile in water (buffer B). Assuming

[2] = target: T1, kinase protein levels in MCF-7 cells (Homo sapiens, UniProt A0A096LP01); experiment: TMT-labeled quantitative proteomics; assay type: cell-based
T1 construct: endogenous in cells; host or cells: MCF-7
Protocol: as §1, §2, §3, §4, §5, §6, §7, §8

CDK2A = target: T2, CDK2A (Homo sapiens, UniProt P24941); experiment: DSF assay; assay type: binding; conditions: 20 µM compound
T2 construct: purchased in-house DSF panel (SGC-style construct names; the trailing A/B is a construct suffix)

PCTK1A = target: T3, PCTK1A (Homo sapiens, UniProt Q00536); experiment: DSF assay; assay type: binding; conditions: 20 µM compound
T3 construct: purchased in-house DSF panel (SGC-style construct names; the trailing A/B is a construct suffix)

DYRK1A = target: T4, DYRK1A (Homo sapiens, UniProt Q13627); experiment: DSF assay; assay type: binding; conditions: 20 µM compound
T4 construct: purchased in-house DSF panel (SGC-style construct names; the trailing A/B is a construct suffix)

GAKA = target: T5, GAKA (Homo sapiens, UniProt O14976); experiment: DSF assay; assay type: binding; conditions: 20 µM compound
T5 construct: purchased in-house DSF panel (SGC-style construct names; the trailing A/B is a construct suffix)
T5 sequence (O14976 14-351): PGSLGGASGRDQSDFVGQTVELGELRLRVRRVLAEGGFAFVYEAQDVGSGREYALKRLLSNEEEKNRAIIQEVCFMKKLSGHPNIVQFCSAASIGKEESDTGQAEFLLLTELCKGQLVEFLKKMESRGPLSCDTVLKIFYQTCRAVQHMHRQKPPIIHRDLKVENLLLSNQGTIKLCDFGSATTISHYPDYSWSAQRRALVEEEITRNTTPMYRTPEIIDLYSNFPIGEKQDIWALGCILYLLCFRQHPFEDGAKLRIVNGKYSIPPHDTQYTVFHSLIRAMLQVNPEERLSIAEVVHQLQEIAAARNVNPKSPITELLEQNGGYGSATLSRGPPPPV

STK10A = target: T6, STK10A (Homo sapiens, UniProt O94804); experiment: DSF assay; assay type: binding; conditions: 20 µM compound
T6 construct: purchased in-house DSF panel (SGC-style construct names; the trailing A/B is a construct suffix)

MAPK14A = target: T7, MAPK14A (Homo sapiens, UniProt Q16539); experiment: DSF assay; assay type: binding; conditions: 20 µM compound
T7 construct: purchased in-house DSF panel (SGC-style construct names; the trailing A/B is a construct suffix)

PDK4A = target: T8, PDK4A (Homo sapiens, UniProt Q16654); experiment: DSF assay; assay type: binding; conditions: 20 µM compound
T8 construct: purchased in-house DSF panel (SGC-style construct names; the trailing A/B is a construct suffix)

WNK1A = target: T9, WNK1A (Homo sapiens, UniProt Q9H4A3); experiment: DSF assay; assay type: binding; conditions: 20 µM compound
T9 construct: purchased in-house DSF panel (SGC-style construct names; the trailing A/B is a construct suffix)

MAPK1A = target: T10, MAPK1A (Homo sapiens, UniProt P28482); experiment: DSF assay; assay type: binding; conditions: 20 µM compound
T10 construct: purchased in-house DSF panel (SGC-style construct names; the trailing A/B is a construct suffix)

MAPK6 = target: T11, MAPK6 (Homo sapiens, UniProt Q16659); experiment: DSF assay; assay type: binding; conditions: 20 µM compound
T11 construct: purchased in-house DSF panel (SGC-style construct names; the trailing A/B is a construct suffix)

RPS6K5A = experiment: DSF assay; assay type: binding; conditions: 20 µM compound
[3] = protein NBPF19;NBPF8;NBPF10;NBPF15;NBPF26;NBPF14;NBPF1;NBPF12, MCF, 0.25µM, set4
[4] = protein NBPF19;NBPF8;NBPF26;NBPF14;NBPF12;NBPF10;NBPF15;NBPF1, MCF7, 2.5 µM, set3
[5] = protein NBPF19;NBPF15;NBPF8;NBPF10;NBPF26;NBPF14, MCF7, 1 µM, set1.1
[6] = protein NUDT4, MCF7, 1 µM, set1.1
[7] = protein NUDT4;NUDT11;NUDT10, MCF, 0.25µM, set4
[8] = protein UQCRHL;UQCRH, MCF, 0.25µM, set4
[9] = protein LINC00493, MCF7, 2.5 µM, set3
[10] = protein LINC00493, MCF, 0.25µM, set4
[11] = protein LINC00493, MCF7, 1 µM, set5
[12] = protein SMIM26, MCF7, 1 µM, set2

T1 sequence (A0A096LP01 whole entry): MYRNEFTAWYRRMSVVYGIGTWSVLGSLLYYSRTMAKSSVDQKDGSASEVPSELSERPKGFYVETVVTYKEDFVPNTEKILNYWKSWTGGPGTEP
T7 sequence (Q16539 whole entry): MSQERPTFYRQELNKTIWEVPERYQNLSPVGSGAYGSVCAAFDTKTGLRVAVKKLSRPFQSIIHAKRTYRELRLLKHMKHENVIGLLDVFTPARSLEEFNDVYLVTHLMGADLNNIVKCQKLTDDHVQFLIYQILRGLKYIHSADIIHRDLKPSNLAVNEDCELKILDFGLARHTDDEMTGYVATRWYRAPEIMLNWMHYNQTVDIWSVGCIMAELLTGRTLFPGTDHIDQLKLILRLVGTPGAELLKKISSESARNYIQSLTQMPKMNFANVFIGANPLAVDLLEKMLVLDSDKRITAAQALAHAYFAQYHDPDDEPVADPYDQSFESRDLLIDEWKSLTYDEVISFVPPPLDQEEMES
T6 sequence (O94804 18-317): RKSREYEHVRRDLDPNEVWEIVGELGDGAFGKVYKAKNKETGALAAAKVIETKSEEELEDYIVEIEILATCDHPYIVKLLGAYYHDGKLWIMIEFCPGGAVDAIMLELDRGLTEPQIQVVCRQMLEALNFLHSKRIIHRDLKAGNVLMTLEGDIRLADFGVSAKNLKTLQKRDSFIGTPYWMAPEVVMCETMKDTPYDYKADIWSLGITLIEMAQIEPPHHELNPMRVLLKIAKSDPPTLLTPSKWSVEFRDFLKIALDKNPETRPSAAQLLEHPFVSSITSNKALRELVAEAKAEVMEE
T9 sequence (Q9H4A3 206-483): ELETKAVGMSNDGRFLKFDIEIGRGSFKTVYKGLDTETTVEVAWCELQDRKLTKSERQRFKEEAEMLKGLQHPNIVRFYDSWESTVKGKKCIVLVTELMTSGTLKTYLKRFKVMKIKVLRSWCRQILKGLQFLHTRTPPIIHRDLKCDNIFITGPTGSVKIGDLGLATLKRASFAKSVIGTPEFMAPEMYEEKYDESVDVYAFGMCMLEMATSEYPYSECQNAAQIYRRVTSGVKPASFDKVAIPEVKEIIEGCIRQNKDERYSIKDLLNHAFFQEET
T10 sequence (P28482 whole entry): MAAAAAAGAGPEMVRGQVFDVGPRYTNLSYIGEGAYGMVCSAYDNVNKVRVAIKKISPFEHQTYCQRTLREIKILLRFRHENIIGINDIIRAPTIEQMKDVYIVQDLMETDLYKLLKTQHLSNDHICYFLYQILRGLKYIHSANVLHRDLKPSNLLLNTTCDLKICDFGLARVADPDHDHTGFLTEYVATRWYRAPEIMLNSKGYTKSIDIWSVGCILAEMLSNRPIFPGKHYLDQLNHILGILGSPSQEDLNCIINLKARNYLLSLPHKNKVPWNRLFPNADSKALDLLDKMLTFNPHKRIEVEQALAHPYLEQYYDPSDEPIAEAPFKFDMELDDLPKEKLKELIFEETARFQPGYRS
T8 sequence (Q16654 whole entry): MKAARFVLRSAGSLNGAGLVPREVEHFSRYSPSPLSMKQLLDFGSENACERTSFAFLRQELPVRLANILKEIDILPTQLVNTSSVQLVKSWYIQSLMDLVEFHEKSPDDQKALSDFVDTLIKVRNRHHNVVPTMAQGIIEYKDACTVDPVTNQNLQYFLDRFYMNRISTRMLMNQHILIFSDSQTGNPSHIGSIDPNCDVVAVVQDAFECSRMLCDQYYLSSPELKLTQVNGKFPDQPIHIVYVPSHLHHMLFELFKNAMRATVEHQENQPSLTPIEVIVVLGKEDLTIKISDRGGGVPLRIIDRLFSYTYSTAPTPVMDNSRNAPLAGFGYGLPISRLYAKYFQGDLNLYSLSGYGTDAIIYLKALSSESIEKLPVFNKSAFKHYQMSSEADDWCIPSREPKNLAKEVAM
T11 sequence (Q16659 9-327): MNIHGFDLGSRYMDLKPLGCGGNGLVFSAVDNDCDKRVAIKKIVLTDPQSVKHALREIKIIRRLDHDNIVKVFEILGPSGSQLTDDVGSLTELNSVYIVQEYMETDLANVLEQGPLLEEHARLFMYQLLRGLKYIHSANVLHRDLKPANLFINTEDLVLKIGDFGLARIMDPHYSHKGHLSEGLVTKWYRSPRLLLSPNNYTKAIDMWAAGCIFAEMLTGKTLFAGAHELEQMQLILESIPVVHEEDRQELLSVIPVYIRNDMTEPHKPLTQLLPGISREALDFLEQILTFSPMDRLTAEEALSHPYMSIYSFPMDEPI
T3 sequence (Q00536 163-478): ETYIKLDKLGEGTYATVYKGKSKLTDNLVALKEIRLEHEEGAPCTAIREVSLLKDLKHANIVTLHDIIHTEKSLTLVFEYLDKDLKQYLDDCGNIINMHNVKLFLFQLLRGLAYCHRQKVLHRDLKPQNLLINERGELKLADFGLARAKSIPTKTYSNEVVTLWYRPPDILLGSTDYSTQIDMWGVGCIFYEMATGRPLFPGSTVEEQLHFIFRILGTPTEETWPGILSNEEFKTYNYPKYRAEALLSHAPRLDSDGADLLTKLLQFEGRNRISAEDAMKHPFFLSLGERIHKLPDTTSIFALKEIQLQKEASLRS

Row | SMILES | kinase degradation ([1]; 0.25 μM) | kinase degradation ([1]; 1 μM) | kinase degradation ([1]; 2.5 μM) | log2FC (compound/DMSO) [1, 3] | log2FC (compound/DMSO) [1, 4] | log2FC (compound/DMSO) [1, 5] | log2FC (compound/DMSO) [1, 6] | log2FC (compound/DMSO) [1, 7] | log2FC (compound/DMSO) [1, 8] | P.Value (compound/DMSO) [2, 9] | log2FC (compound/DMSO) [2, 9] | P.Value (compound/DMSO) [2, 10] | log2FC (compound/DMSO) [2, 10] | other results
1 | Cc1ncsc1-c1ccc(CNC(=O)[C@@H]2C[C@@H](O)CN2C(=O)[C@@H](NC(=O)CCOCCOCCOCCOCCN2CCN(c3ccc(Nc4ncc(Cl)c(Nc5ccccc5C(N)=O)n4)cc3)CC2)C(C)(C)C)cc1 [6-b] | Few kinases were degraded | significant degradation of several kinases | the number of degraded kinases was again lower | -0.06617 | -0.2581 | -0.7206 | -0.1525 | 0.182 | 0.8692 | 0.00484 | -0.4049 | 0.5319 | -0.03906 | –
2 | Cc1ncsc1-c1ccc(CNC(=O)[C@@H]2C[C@@H](O)CN2C(=O)[C@@H](NC(=O)CCOCCOCCNC(=O)c2cc(Nc3cc(C4CC4)[nH]n3)nc(Nc3ccc(CC#N)cc3)n2)C(C)(C)C)cc1 [5-a] | – | did not result in significant degradation of any kinase | – | – | – | -0.2083 | -0.05063 | – | – | – | – | – | – | –
3 | Cc1ncsc1-c1ccc(CNC(=O)[C@@H]2C[C@@H](O)CN2C(=O)[C@@H](NC(=O)CCOCCOCCOCCN2CCN(c3cc(Nc4cc(C5CC5)[nH]n4)nc(Nc4ccc(CC#N)cc4)n3)CC2)C(C)(C)C)cc1 [4-a] | Few kinases were degraded | significant degradation of several kinases | the number of degraded kinases was again lower | 0.1164 | 0.132 | -0.3973 | -0.04751 | 0.003804 | 0.8375 | 0.002092 | 0.3781 | 0.1285 | 0.1013 | –
4 | CC(C)(C)OC(=O)NCCCOCCOCCOCCCNC(=O)c1cc(Nc2cc(C3CC3)[nH]n2)nc(Nc2ccc(CC#N)cc2)n1 [5-L] | – | – | – | – | – | – | – | – | – | – | – | – | – | ΔTm at 20 µM (CDK2A): 7.86 °C; ΔTm at 20 µM (PCTK1A): 4.53 °C; ΔTm at 20 µM (DYRK1A): 8.01 °C; ΔTm at 20 µM (GAKA): 3.75 °C; ΔTm at 20 µM (STK10A): 7.84 °C; ΔTm at 20 µM (MAPK14A): 0.52 °C; ΔTm at 20 µM (PDK4A): 0.13 °C; ΔTm at 20 µM (WNK1A): 0.56 °C; ΔTm at 20 µM (MAPK1A): 4.69 °C; ΔTm at 20 µM (MAPK6): 0.51 °C; ΔTm (RPS6K5A): 11.21 °C
5 | Cc1ncsc1-c1ccc(CNC(=O)[C@@H]2C[C@@H](O)CN2C(=O)[C@@H](NC(=O)CCCCCCN2CCN(c3ccc(Nc4ncc(Cl)c(Nc5ccccc5C(N)=O)n4)cc3)CC2)C(C)(C)C)cc1 [6-d] | – | significant degradation of several kinases | – | – | – | – | – | – | – | – | – | – | – | log2FC (compound/DMSO) ([1]; protein ARHGEF5;ARHGEF35, MCF7, 1 µM, set5): 0.09474; log2FC (compound/DMSO) ([1]; protein NBPF19;NBPF15;NBPF8;NBPF10;NBPF3;NBPF11;NBPF26;NBPF14;NBPF1;NBPF12, MCF7, 1 µM, set5): -0.4722; P.Value (compound/DMSO) [2, 11]: 0.0001847; log2FC (compound/DMSO) [2, 11]: -0.9636
6 | CC(=O)N[C@H](C(=O)N1C[C@H](O)C[C@H]1C(=O)NCc1ccc(-c2scnc2C)cc1OCCOCCOCCOCCNC(=O)c1cc(Nc2cc(C3CC3)[nH]n2)nc(Nc2ccc(CC#N)cc2)n1)C(C)(C)C [5-b] | – | did not result in significant degradation of any kinase | – | – | – | – | – | – | – | – | – | – | – | P.Value (compound/DMSO) [2, 12]: 0.1541; log2FC (compound/DMSO) [2, 12]: -0.1317
7 | CC(=O)N[C@H](C(=O)N1C[C@H](O)C[C@H]1C(=O)NCc1ccc(-c2scnc2C)cc1OCCOCCOCCOCCOCCC(=O)N1CCN(c2ccc(Nc3ncc(Cl)c(Nc4ccccc4C(N)=O)n3)cc2)CC1)C(C)(C)C [6-e] | no significantly degraded kinases were detected | did not result in significant degradation of any kinase | no significantly degraded kinases were detected | 0.2043 | 0.155 | – | – | -0.054 | -0.5234 | 0.7735 | 0.04253 | 0.8916 | -0.008166 | P.Value (compound/DMSO) [2, 12]: 0.2313; log2FC (compound/DMSO) [2, 12]: -0.1331
8 | CC(C)(C)OC(=O)NCCOCCOCCOCCOCCC(=O)N1CCN(c2cc(Nc3cc(C4CC4)[nH]n3)nc(Nc3ccc(CC#N)cc3)n2)CC1 [4-L] | – | – | – | – | – | – | – | – | – | – | – | – | – | ΔTm at 20 µM (CDK2A): 7.79 °C; ΔTm at 20 µM (PCTK1A): 4.55 °C; ΔTm at 20 µM (DYRK1A): 7.48 °C; ΔTm at 20 µM (GAKA): 5.92 °C; ΔTm at 20 µM (STK10A): 11.8 °C; ΔTm at 20 µM (MAPK14A): 0.05 °C; ΔTm at 20 µM (PDK4A): 1.49 °C; ΔTm at 20 µM (WNK1A): 1.05 °C; ΔTm at 20 µM (MAPK1A): 3.2 °C; ΔTm at 20 µM (MAPK6): -0.18 °C; ΔTm (RPS6K5A): 9.52 °C
